{"source": "patent US7815900B1", "about": "“Use of C3-C5 monosaccharides to protect keratinous fibers” (L'Oréal S.A., priority 2000, dated 2010)", "key": {"[1]": {"experiment": "DSC double peak area of relaxed hair after treatment", "conditions": "for Double Peak Area: relaxed ethnic hair, 10 min at 45° C.", "description": "(§1) Kinky hair was relaxed using 2.5% sodium hydroxide (20 min at room temperature). The hair was thoroughly rinsed with water, and a treatment solution was applied for 10 min at 45° C. Each of the following treatment solutions were tested: a) 1% D-xylose, b) 5% D-xylose, and c) deionized water-control treatment."}, "[2]": {"experiment": "Tensile strength (work to break) of relaxed hair after treatment", "conditions": "relaxed ethnic hair, 10 min at 45° C.", "description": "as §1"}, "[3]": {"experiment": "Cuticle loss estimated by UV transmittance of suspension", "conditions": "relaxed ethnic hair, greater transmittance = less cuticle loss", "description": "as §1\nThe cuticle loss was estimated as follows. The relaxed/treated hair (0.5 g) was immersed in 2.5 mL deionized water for 15 min at 45° C. The hair was removed and UV transmittance of the remaining cloudy suspension was determined. The greater the transmittance, the less material is suspended, and therefore, the less damage to the hair."}, "[4]": {"experiment": "Hair chemical composition (lysine, arginine) after heat cycles", "conditions": "1.0% solution", "description": "The repairing of the damaged hair by pentoses is further supported by changes in the hair chemical composition that are observed when the hair was treated with pentose solutions, followed by heat application. Specifically, the amounts of lysine and arginine decreased, as compared to the hair treated with water (Table 19). The change in the lysine/arginine content, in conjunction with the decreased extension to break, appears to indicate that some cross-linking processes occur when the hair is heated in the presence of pentoses."}, "[5]": {"conditions": "bleached/permed hair after 12 cycles at 130° C."}}, "data": [{"smiles": "O=C[C@H](O)[C@@H](O)[C@H](O)CO", "note": "[D-Xylose]", "values": [{"measurement": "Double Peak Area", "setting": "[1]; 1% solution", "value": "14.10 +/− 2.52 J/g hair"}, {"measurement": "Double Peak Area", "setting": "[1]; 5% solution", "value": "21.35 +/− 19.02 J/g hair"}, {"measurement": "protection of relaxed hair (α-structure, tensile strength, cuticle loss) compared to water, in words", "setting": "[1]; relaxed kinky hair", "value": "protected"}, {"measurement": "Work to Break", "setting": "[2]; 1% solution", "value": "749 +/− 151 J/m^2"}, {"measurement": "Work to Break", "setting": "[2]; 5% solution", "value": "1,200 +/− 222 J/m^2"}, {"measurement": "Transmittance, at 600 nm", "setting": "[3]; 1% solution", "value": 0.9545}, {"measurement": "Transmittance, at 600 nm", "setting": "[3]; 5% solution", "value": 0.9339}, {"measurement": "Arginine", "setting": "[4]; bleached hair after 12 cycles at 130° C.", "value": "8.0 +/− 0.1 wt %"}, {"measurement": "Arginine", "setting": "[4]; [5]", "value": "7.2 +/− 0.1 wt %"}, {"measurement": "Lysine", "setting": "[4]; [5]", "value": "1.6 +/− 0.1 wt %"}]}]}
